{
  "source": "paper PMC3207004",
  "about": "(Clinical cancer research : an official journal of the …, 2011)",
  "key": {"[1]": {"tested_on": "cultured human retinal pigment epithelial cells (RPE)", "details": "cited from earlier work"}, "[2]": {"assay": "Plasma pharmacokinetics of PF-04928473 after oral PF-04929113", "format": "in vivo, human"}, "[3]": {"tested_on": "NSCLC", "details": "cited from earlier work"}},
  "data": [
    {"smiles": "COC1=C2C[C@@H](C)C[C@H](OC)[C@H](O)[C@@H](C)/C=C(\\C)[C@H](OC(N)=O)[C@@H](OC)/C=C\\C=C(/C)C(=O)NC(=CC1=O)C2=O", "note": "[geldanamycin]", "values": [
      {"measurement": "Effect on cultured human retinal pigment epithelial cells", "setting": "[1]", "value": "cytostaticity and cytotoxicity"}
    ]},
    {"smiles": "C=CCNC1=C2C[C@@H](C)C[C@H](OC)[C@H](O)[C@@H](C)/C=C(\\C)[C@H](OC(N)=O)[C@@H](OC)/C=C\\C=C(/C)C(=O)NC(=CC1=O)C2=O", "note": "[17-AAG]", "values": [
      {"measurement": "Effect on cultured human retinal pigment epithelial cells", "setting": "[1]", "value": "cytostaticity and cytotoxicity"}
    ]},
    {"smiles": "CC1(C)CC(=O)c2c(C(F)(F)F)nn(-c3ccc(C(N)=O)c(N[C@H]4CC[C@H](O)CC4)c3)c2C1", "note": "[PF-04928473]", "values": [
      {"measurement": "Time span in which active drug was detectable in plasma", "setting": "[2]; after oral PF-04929113", "value": "detectable at 20 minutes through 48 hours"},
      {"measurement": "Clearance (CL/Fm)", "setting": "[2]; high value", "value": "hepatic and extra-hepatic clearance"},
      {"measurement": "Volume of distribution (Vz/Fm)", "setting": "[2]; high value", "value": "extensive tissue binding"},
      {"measurement": "half-life", "setting": "[2]; human, plasma, oral", "value": "8 to 15", "unit": "h"},
      {"measurement": "Change of half-life across dose levels", "setting": "[2]; in vivo", "value": "doesn’t appear to change across different dose levels"},
      {"measurement": "Dose linearity of pharmacokinetics", "setting": "[2]; in vivo", "value": "almost linear PK"},
      {"measurement": "Dose linearity of pharmacokinetics", "setting": "[2]; in vivo, listed as PF 04928473", "value": "almost linear pharmacokinetics"},
      {"measurement": "Absorption following oral administration", "setting": "[2]; patients", "value": "rapid absorption"},
      {"measurement": "Drug accumulation after multiple dosing", "setting": "[2]; twice weekly", "value": "no drug accumulation"}
    ]},
    {"smiles": "C=CCNc1c(O)cc2c(O)c1C[C@@H](C)C[C@H](OC)[C@H](O)[C@@H](C)/C=C(\\C)[C@H](OC(N)=O)[C@@H](OC)/C=C\\C=C(/C)C(=O)N2", "note": "[IPI-504]", "values": [
      {"measurement": "Objective response", "setting": "[3]; 76 patients with NSCLC", "value": 7, "unit": "%"},
      {"measurement": "Objective response, number of patients", "setting": "[3]; 76 patients with NSCLC", "value": 5, "unit": "patients"},
      {"measurement": "Response among 3 patients with ALK rearrangements", "setting": "[3]", "value": "2 PRs and one prolonged SD"}
    ]}
  ]
}
